In PubChem BioAssay (NCI):
Values joined by “and” are separate entries in the source; they are usually repeats but may differ in a detail not shown here. Equal entries are not always repeated.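 96-well plates; 48 h exposure; 5 concentrations. Endpoints by linear interpolation between flanking doses. Not reached: highest tested concentration assigned. The concentration for 50% growth inhibition is given as GI50. At the TGI there is no net growth.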

What was measured:
Assay in all cases: NCI tumour cell line growth inhibition, 48 h
SF-539 CNS = tested on: SF-539 CNS
OVCAR-8 ovarian = tested on: OVCAR-8 ovarian
SNB-75 CNS = tested on: SNB-75 CNS
IGROV1 ovarian = tested on: IGROV1 ovarian
MDA-N = tested on: MDA-N
SW-620 colon = tested on: SW-620 colon
HT29 colon = tested on: HT29 colon
OVCAR-4 ovarian = tested on: OVCAR-4 ovarian
A549 NSCLC = tested on: A549 NSCLC
SR leukemia = tested on: SR leukemia
MALME-3M melanoma = tested on: MALME-3M melanoma
MOLT-4 leukemia = tested on: MOLT-4 leukemia
SK-MEL-28 melanoma = tested on: SK-MEL-28 melanoma
HOP-62 NSCLC = tested on: HOP-62 NSCLC
OVCAR-3 ovarian = tested on: OVCAR-3 ovarian
HL-60(TB) leukemia = tested on: HL-60(TB) leukemia
LOX IMVI melanoma = tested on: LOX IMVI melanoma
HCC-2998 colon = tested on: HCC-2998 colon
UACC-257 melanoma = tested on: UACC-257 melanoma
BT-549 breast = tested on: BT-549 breast
ACHN renal = tested on: ACHN renal
NCI-H23 lung = tested on: NCI-H23 lung
T-47D breast = tested on: T-47D breast
SF-295 CNS = tested on: SF-295 CNS
MCF7 breast = tested on: MCF7 breast
CAKI-1 renal = tested on: CAKI-1 renal
HCT-15 colon = tested on: HCT-15 colon
K-562 leukemia = tested on: K-562 leukemia
COLO 205 colon = tested on: COLO 205 colon
SF-268 CNS = tested on: SF-268 CNS
SK-MEL-2 melanoma = tested on: SK-MEL-2 melanoma
DU-145 prostate = tested on: DU-145 prostate
UACC-62 melanoma = tested on: UACC-62 melanoma
786-0 renal = tested on: 786-0 renal
M14 melanoma = tested on: M14 melanoma
RXF 393 renal = tested on: RXF 393 renal
PC-3 prostate = tested on: PC-3 prostate
SK-OV-3 ovarian = tested on: SK-OV-3 ovarian
HCT-116 colon = tested on: HCT-116 colon
EKVX NSCLC = tested on: EKVX NSCLC
UO-31 renal = tested on: UO-31 renal
MDA-MB-231 breast = tested on: MDA-MB-231 breast
U251 CNS = tested on: U251 CNS
HS 578T breast = tested on: HS 578T breast
NCI-H522 lung = tested on: NCI-H522 lung
CCRF-CEM leukemia = tested on: CCRF-CEM leukemia
NCI/ADR-RES ovarian = tested on: NCI/ADR-RES ovarian
OVCAR-5 ovarian = tested on: OVCAR-5 ovarian
SNB-19 CNS = tested on: SNB-19 CNS
NCI-H460 lung = tested on: NCI-H460 lung
SN12C renal = tested on: SN12C renal
NCI-H226 lung = tested on: NCI-H226 lung
SK-MEL-5 melanoma = tested on: SK-MEL-5 melanoma
TK-10 renal = tested on: TK-10 renal
MDA-MB-435 = tested on: MDA-MB-435
KM12 colon = tested on: KM12 colon

In the case of `COCC1OC(Sc2ccccc2)C(O)C(OC)C1OC` (configuration not stated), the TGI (SF-539 CNS) is reported as greater than 100 µM, the TGI (OVCAR-8 ovarian) is reported as greater than 100 µM and the GI50 (SNB-75 CNS) is reported as > 100 µM and 10.1 µM. The TGI (SNB-75 CNS) was greater than 100 µM, the TGI (IGROV1 ovarian) was greater than 100 µM and the TGI (MDA-N) was greater than 100 µM. The TGI (SW-620 colon) was greater than 100 µM, the TGI (HT29 colon) was greater than 100 µM and the TGI (OVCAR-4 ovarian) was greater than 100 µM. It also gave a TGI (A549 NSCLC) greater than 100 µM, a TGI (SR leukemia) greater than 100 µM and a TGI (MALME-3M melanoma) greater than 100 µM. The TGI (MOLT-4 leukemia) was greater than 100 µM, the TGI (SK-MEL-28 melanoma) was greater than 100 µM and the TGI (HOP-62 NSCLC) was greater than 100 µM. The TGI (OVCAR-3 ovarian) was greater than 100 µM, the TGI (HL-60(TB) leukemia) was greater than 100 µM and the TGI (LOX IMVI melanoma) was greater than 100 µM. The TGI (HCC-2998 colon) was greater than 100 µM, the TGI (UACC-257 melanoma) was greater than 100 µM and the TGI (BT-549 breast) was greater than 100 µM. The TGI (ACHN renal) was greater than 100 µM, the TGI (NCI-H23 lung) was greater than 100 µM and the TGI (T-47D breast) was greater than 100 µM. The TGI (SF-295 CNS) was greater than 100 µM, the TGI (MCF7 breast) was greater than 100 µM and the TGI (CAKI-1 renal) was greater than 100 µM. It also gave a TGI (HCT-15 colon) greater than 100 µM, a TGI (K-562 leukemia) greater than 100 µM and a TGI (COLO 205 colon) greater than 100 µM. The TGI (SF-268 CNS) was greater than 100 µM, the TGI (SK-MEL-2 melanoma) was greater than 100 µM and the TGI (DU-145 prostate) was greater than 100 µM. The TGI (UACC-62 melanoma) was greater than 100 µM, the TGI (786-0 renal) was greater than 100 µM and the TGI (M14 melanoma) was greater than 100 µM. For the same molecule, the TGI (RXF 393 renal) was greater than 100 µM, the TGI (PC-3 prostate) was greater than 100 µM and the TGI (SK-OV-3 ovarian) was greater than 100 µM. It also gave a TGI (HCT-116 colon) greater than 100 µM, a TGI (EKVX NSCLC) greater than 100 µM and a TGI (UO-31 renal) greater than 100 µM. The TGI (MDA-MB-231 breast) was greater than 100 µM, the TGI (U251 CNS) was greater than 100 µM and the TGI (HS 578T breast) was greater than 100 µM. The TGI (NCI-H522 lung) was greater than 100 µM, the TGI (CCRF-CEM leukemia) was greater than 100 µM and the TGI (NCI/ADR-RES ovarian) was greater than 100 µM. The TGI (OVCAR-5 ovarian) was greater than 100 µM, the TGI (SNB-19 CNS) was greater than 100 µM and the TGI (NCI-H460 lung) was greater than 100 µM. For the same molecule, the TGI (SN12C renal) was greater than 100 µM, the TGI (NCI-H226 lung) was greater than 100 µM and the TGI (SK-MEL-5 melanoma) was greater than 100 µM. For the same molecule, the TGI (TK-10 renal) was greater than 100 µM, the TGI (MDA-MB-435) was greater than 100 µM and the TGI (KM12 colon) was greater than 100 µM.
